Reference: ChEMBL document CHEMBL2040546, “Identification of influenza endonuclease inhibitors using a novel fluorescence polarization assay” (ACS Chem Biol, 2012)

Assay: Cytotoxicity
Assay type: functional, Canis lupus familiaris, MDCK

SMILES | CC50 [µM] | CC50 (Influenza A virus, MDCK) [µM]
C[C@H](NC(=O)c1nc(-c2cnccn2)[nH]c(=O)c1O)c1ccccc1 | > 60 | –
O=C(NCC1CC1)c1nc(-c2cnccn2)[nH]c(=O)c1O | > 60 | –
C[C@@H](NC(=O)c1nc(-c2cnccn2)[nH]c(=O)c1O)C1CCCCC1 | 7.1 | –
O=C(O)c1nc(-c2cnccn2)nc(O)c1O | > 60 | –
O=C(NCc1ccccc1)c1nc(-c2cnccn2)[nH]c(=O)c1O | > 60 | –
O=C(NCCc1ccccc1)c1nc(-c2cnccn2)[nH]c(=O)c1O | – | > 60
Cc1ccc([C@@H](C)NC(=O)c2nc(-c3cnccn3)[nH]c(=O)c2O)cc1 | > 60 | –
C[C@@H](NC(=O)c1nc(-c2cnccn2)[nH]c(=O)c1O)c1ccccc1 | > 60 | –
Cc1ccc(CNC(=O)c2nc(-c3cnccn3)[nH]c(=O)c2O)cc1 | > 60 | –
CC(NC(=O)c1nc(-c2cnccn2)[nH]c(=O)c1O)c1ccccc1 (centres undefined) | > 60 | –
O=C(NC1CCCc2ccccc21)c1nc(-c2cnccn2)[nH]c(=O)c1O (centres undefined) | 10.2 | –
O=C(NCc1ccc(F)cc1)c1nc(-c2cnccn2)[nH]c(=O)c1O | > 60 | –
O=C(N[C@H](CO)c1ccccc1)c1nc(-c2cnccn2)[nH]c(=O)c1O | > 60 | –
COc1ccc(CNC(=O)c2nc(-c3cnccn3)[nH]c(=O)c2O)cc1 | > 60 | –
